Test results: publication PMC8007718, “A prostate-specific membrane antigen (PSMA)-targeted prodrug with a favorable in vivo toxicity profile” (Scientific Reports, 2021)
*1 amine or outer side, *2 acyl side, *3 side chain or, on linkers, in order; H or OH if unused. Where a SMILES comes first, the peptide text is derived from it. [ ]: non-standard residue; d: D form. The star is where a group is joined. X1 = O=C(O)CC[C@H](NC(=O)N[C@@H](CCCCNC(=O)CCCCCCC(=O)*)C(=O)O)C(=O)O; Dolaproine = CO[C@@H]([C@@H]1CCCN1)[C@@H](C)C(=O)O; Dil = CC[C@H](C)[C@H](NC)[C@@H](CC(=O)O)OC; PABC = O=C(OCc1ccc(N[*:1])cc1)[*:2]; X2 = C[C@@H](N*)[C@@H](O)c1ccccc1; Cit = NC(=O)NCCC[C@H](N)C(=O)O; NMeV = CN[C@H](C(=O)O)C(C)C

Molecular target: T1, cathepsin B (Homo sapiens, UniProt P07858)
T1 construct: gene CTSB; recombinant cathepsin B
Assay: cleavage by recombinant cathepsin B followed by HPLC (MMAE release)
Format: biochemical

Question: For CC[C@H](C)[C@@H]([C@@H](CC(=O)N1CCC[C@H]1[C@H](OC)[C@@H](C)C(=O)N[C@H](C)[C@@H](O)c1ccccc1)OC)N(C)C(=O)[C@@H](NC(=O)[C@H](C(C)C)N(C)C(=O)OCc1ccc(NC(=O)[C@H](CCCNC(N)=O)NC(=O)[C@@H](NC(=O)CCCCCCC(=O)NCCCC[C@H](NC(=O)N[C@@H](CCC(=O)O)C(=O)O)C(=O)O)C(C)C)cc1)C(C)C [SBPD-1, (6S,9S,24S,28S)-1-amino-6-((4-((5S,8S,11S)-11-((S)-sec-butyl)-12-(2-((S)-2-((1R,2R)-3-(((1S,2R)-1-hydroxy-1-phenylpropan-2-yl)amino)-1-methoxy-2-methyl-3-oxopropyl)pyrrolidin-1-yl)-2-oxoethyl)-5,8-diisopropyl-4,10-dimethyl-3,6,9-trioxo-2,13-dioxa-4,7,10-triazatetradecyl)phenyl)carbamoyl)-9-isopropyl-1,8,11,18,26-pentaoxo-2,7,10,19,25,27-hexaazatriacontane-24,28,30-tricarboxylic acid] (X1-V[Cit][PABC][NMeV]V[Dil][Dolaproine]-X2), which metabolised at 3 h is on record?
Answer: 80%
